Source: ChEMBL document CHEMBL5108048, “Potent GCN2 Inhibitor Capable of Reversing MDSC-Driven T Cell Suppression Demonstrates In Vivo Efficacy as a Single Agent and in Combination with Anti-Angiogenesis Therapy” (J Med Chem, 2022)
Active and inactive are the calls of the source. The rule behind the calls is not given here.

What was measured:
[1] = target: T1, Interferon-induced, double-stranded RNA-activated protein kinase (Homo sapiens, UniProt P19525); test: Inhibition of PKR (unknown origin) assessed as fold change
Panc02 = test: Antitumor activity against […] Panc02 cells xenografted in mouse assessed as decrease in MDSC- induced suppression of CD8+ T cells at 600 nM incubated for 3 days; format: functional, cell-based; conditions: time 3.0 day
[2] = target: T2, Mitogen-activated protein kinase 10 (Homo sapiens, UniProt P53779); test: Inhibition of JNK3 (unknown origin)
[3] = target: T3, Eukaryotic translation initiation factor 2-alpha kinase 3 (Homo sapiens) (UniProt Q9NZJ5); test: Inhibition of PERK (unknown origin) assessed as fold change
T3 sequence (whole entry): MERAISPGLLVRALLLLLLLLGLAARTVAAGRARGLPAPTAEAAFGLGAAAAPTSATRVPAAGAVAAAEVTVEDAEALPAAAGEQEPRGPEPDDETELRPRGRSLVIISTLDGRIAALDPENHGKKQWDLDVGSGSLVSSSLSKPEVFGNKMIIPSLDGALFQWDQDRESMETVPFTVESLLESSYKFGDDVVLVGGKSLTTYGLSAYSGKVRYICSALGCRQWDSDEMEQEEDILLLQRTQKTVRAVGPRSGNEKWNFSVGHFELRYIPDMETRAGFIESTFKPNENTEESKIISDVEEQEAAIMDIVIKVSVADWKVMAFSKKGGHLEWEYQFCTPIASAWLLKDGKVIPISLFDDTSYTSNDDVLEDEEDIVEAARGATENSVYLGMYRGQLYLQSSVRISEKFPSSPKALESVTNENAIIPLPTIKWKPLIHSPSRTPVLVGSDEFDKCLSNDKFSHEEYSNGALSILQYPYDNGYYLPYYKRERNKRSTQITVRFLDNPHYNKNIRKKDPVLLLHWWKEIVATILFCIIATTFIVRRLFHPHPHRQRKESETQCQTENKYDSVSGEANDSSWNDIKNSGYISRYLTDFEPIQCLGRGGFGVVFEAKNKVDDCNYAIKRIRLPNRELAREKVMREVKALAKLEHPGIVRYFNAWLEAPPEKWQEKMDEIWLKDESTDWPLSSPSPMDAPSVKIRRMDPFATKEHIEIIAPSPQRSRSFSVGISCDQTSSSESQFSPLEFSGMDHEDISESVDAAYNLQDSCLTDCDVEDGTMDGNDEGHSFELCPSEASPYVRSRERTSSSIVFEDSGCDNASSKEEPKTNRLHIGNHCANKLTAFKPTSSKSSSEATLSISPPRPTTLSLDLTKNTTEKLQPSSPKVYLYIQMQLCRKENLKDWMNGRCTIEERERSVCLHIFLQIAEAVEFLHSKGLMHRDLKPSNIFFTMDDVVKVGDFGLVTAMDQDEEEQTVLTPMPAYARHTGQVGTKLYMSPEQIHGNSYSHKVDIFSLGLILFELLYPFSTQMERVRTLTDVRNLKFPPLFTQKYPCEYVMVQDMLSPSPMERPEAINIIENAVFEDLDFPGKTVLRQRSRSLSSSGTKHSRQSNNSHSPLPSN

[4] = […] in Sprague-Dawley rat […] assessed as half life at 0.5 mg/kg,iv; format: ADME, organism-based
Spleen = test: In vivo inhibition of GCN2 in Balb/c mouse injected with […] Renca cells assessed as reduction in spleen GCN2 expression level at 15 mg/kg,po bid after 17 days; format: functional; conditions: 408 h, time 17 day
[5] = target: T2, Mitogen-activated protein kinase 10; test: Inhibition of JNK3 (unknown origin) assessed as fold change
[6] = target: T4, Eukaryotic translation initiation factor 2-alpha kinase 3 (Homo sapiens, UniProt Q9NZJ5); test: Inhibition of PERK (unknown origin)
T4 sequence (Q9NZJ5 whole entry): T3 sequence (whole entry)

[7] = Oral bioavailability in Balb/c mouse at 2 mg/kg; format: ADME, organism-based; conditions: in vivo
eIF-2-alpha kinase GCN2 [8] = target: T5, eIF-2-alpha kinase GCN2 (Homo sapiens, UniProt Q9P2K8); test: Inhibition of GCN2 (unknown origin)
[9] = Volume of distribution at steady state in Balb/c mouse at 0.5 mg/kg,iv; format: ADME, organism-based; conditions: in vivo, read-out: Vdss
[10] = Antitumor activity against mouse LL2 cells xenografted in mouse assessed as tumor growth inhibition at 50 mg/kg,po bid in presence of anti-VEGFR antibody measured after 26 days; format: functional; conditions: Lewis lung carcinoma, 624 h, time 26 day, read-out: TGI
[11] = Half life in Balb/c mouse at 0.5 mg/kg,iv; format: ADME, organism-based; conditions: in vivo
CDK6/cyclin D3 = CDK6/cyclin D3 (Homo sapiens, UniProt Q00534); test: Inhibition of CDK6/Cyclin-D3 (unknown origin); format: protein-complex assay
[12] = target: T6, Eukaryotic translation initiation factor 2-alpha kinase 1 (Homo sapiens, UniProt Q9BQI3); test: Inhibition of HRI (unknown origin) assessed as fold change
[13] = target: T7, Transcription initiation factor TFIID subunit 1-like (Homo sapiens, UniProt Q8IZX4); test: Inhibition of TAF1L (unknown origin) assessed as fold change
[14] = target: T6, Eukaryotic translation initiation factor 2-alpha kinase 1; test: Inhibition of HRI (unknown origin)
[15] = target: T8, Cyclin-dependent kinase-like 4 (Homo sapiens, UniProt Q5MAI5); test: Inhibition of CDKL4 (unknown origin) assessed as fold change
[16] = AUC (0-infinity) in Sprague-Dawley rat at 2 mg/kg,po; format: ADME, organism-based; design: time infinity, dose 2 mg/kg, route po; conditions: in vivo
[17] = Plasma protein binding (unknown origin) assessed as unbound fraction; format: ADME, cell-free
Mus musculus [18] = test: In vivo inhibition of GCN2 in Balb/c mouse injected with […] Renca cells assessed as reduction in tumor GCN2 expression level at 15 mg/kg,po bid after 17 days; format: functional; conditions: Neoplasm, 408 h, time 17 day
[19] = target: T1, Interferon-induced, double-stranded RNA-activated protein kinase; test: Inhibition of PKR (unknown origin)
[20] = target: T9, Cyclin-dependent kinase-like 3 (Homo sapiens, UniProt Q8IVW4); test: Inhibition of CDKL3 (unknown origin) assessed as fold change
eIF-2-alpha kinase GCN2 [21] = target: T5, eIF-2-alpha kinase GCN2; test: Inhibition of GCN2 in human SK-OV-3 cells assessed as reduction in phosphorylation of eIF2alpha in presence of human serum by cellular assay; format: cell-based
[22] = target: T8, Cyclin-dependent kinase-like 4; test: Inhibition of CDKL4 (unknown origin)
[23] = Clearance in Balb/c mouse at 0.5 mg/kg,iv; format: ADME, organism-based; conditions: in vivo
[24] = target: CDK6/cyclin D3 (Homo sapiens) (UniProt P30281+Q00534); test: Inhibition of CDK6/Cyclin-D3 (unknown origin) assessed as fold change; format: protein-complex assay
[25] = Oral bioavailability in Sprague-Dawley rat at 2 mg/kg; format: ADME, organism-based; conditions: in vivo
[26] = target: T10, Cyclin-dependent kinase-like 2 (Homo sapiens) (UniProt Q92772); test: Inhibition of CDKL2 (unknown origin) assessed as fold change
T10 sequence (whole entry): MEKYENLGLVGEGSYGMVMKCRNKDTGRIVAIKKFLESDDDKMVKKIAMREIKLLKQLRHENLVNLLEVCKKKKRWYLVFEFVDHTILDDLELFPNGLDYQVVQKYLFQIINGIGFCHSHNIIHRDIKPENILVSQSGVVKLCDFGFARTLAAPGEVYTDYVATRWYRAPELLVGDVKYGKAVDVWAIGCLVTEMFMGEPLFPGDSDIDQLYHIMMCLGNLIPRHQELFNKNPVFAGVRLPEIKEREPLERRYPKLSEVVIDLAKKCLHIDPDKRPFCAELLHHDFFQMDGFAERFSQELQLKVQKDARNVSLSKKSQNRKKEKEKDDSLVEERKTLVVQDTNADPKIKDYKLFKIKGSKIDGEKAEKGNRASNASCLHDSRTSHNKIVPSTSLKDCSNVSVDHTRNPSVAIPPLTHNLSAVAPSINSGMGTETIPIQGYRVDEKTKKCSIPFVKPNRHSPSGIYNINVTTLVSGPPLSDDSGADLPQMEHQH

[27] = Antitumor activity against mouse LL2 cells xenografted in mouse assessed as tumor growth inhibition at 50 mg/kg,po bid measured after 26 days; format: functional; conditions: Lewis lung carcinoma, 624 h, time 26 day, read-out: TGI
[28] = target: T9, Cyclin-dependent kinase-like 3; test: Inhibition of CDKL3 (unknown origin)
[29] = target: T11, Cyclin-dependent kinase-like 2 (Homo sapiens, UniProt Q92772); test: Inhibition of CDKL2 (unknown origin)
T11 sequence (Q92772 whole entry): T10 sequence (whole entry)

[30] = target: T7, Transcription initiation factor TFIID subunit 1-like; test: Inhibition of TAF1L (unknown origin)
Mus musculus [31] = test: In vivo inhibition of GCN2 in Balb/c mouse injected with […] Renca cells assessed as reduction in ATF4 expression level at 15 mg/kg,po bid after 17 days by western blot analysis; format: functional; conditions: 408 h, time 17 day
[32] = AUC (0-infinity) in Balb/c mouse at 2 mg/kg,po; format: ADME, organism-based; design: time infinity, dose 2 mg/kg, route po; conditions: in vivo
eIF-2-alpha kinase GCN2 [33] = target: T5, eIF-2-alpha kinase GCN2; test: Inhibition of GCN2 in human SK-OV-3 cells assessed as reduction in phosphorylation of eIF2alpha by cellular assay; format: cell-based

T5 sequence (Q9P2K8 whole entry): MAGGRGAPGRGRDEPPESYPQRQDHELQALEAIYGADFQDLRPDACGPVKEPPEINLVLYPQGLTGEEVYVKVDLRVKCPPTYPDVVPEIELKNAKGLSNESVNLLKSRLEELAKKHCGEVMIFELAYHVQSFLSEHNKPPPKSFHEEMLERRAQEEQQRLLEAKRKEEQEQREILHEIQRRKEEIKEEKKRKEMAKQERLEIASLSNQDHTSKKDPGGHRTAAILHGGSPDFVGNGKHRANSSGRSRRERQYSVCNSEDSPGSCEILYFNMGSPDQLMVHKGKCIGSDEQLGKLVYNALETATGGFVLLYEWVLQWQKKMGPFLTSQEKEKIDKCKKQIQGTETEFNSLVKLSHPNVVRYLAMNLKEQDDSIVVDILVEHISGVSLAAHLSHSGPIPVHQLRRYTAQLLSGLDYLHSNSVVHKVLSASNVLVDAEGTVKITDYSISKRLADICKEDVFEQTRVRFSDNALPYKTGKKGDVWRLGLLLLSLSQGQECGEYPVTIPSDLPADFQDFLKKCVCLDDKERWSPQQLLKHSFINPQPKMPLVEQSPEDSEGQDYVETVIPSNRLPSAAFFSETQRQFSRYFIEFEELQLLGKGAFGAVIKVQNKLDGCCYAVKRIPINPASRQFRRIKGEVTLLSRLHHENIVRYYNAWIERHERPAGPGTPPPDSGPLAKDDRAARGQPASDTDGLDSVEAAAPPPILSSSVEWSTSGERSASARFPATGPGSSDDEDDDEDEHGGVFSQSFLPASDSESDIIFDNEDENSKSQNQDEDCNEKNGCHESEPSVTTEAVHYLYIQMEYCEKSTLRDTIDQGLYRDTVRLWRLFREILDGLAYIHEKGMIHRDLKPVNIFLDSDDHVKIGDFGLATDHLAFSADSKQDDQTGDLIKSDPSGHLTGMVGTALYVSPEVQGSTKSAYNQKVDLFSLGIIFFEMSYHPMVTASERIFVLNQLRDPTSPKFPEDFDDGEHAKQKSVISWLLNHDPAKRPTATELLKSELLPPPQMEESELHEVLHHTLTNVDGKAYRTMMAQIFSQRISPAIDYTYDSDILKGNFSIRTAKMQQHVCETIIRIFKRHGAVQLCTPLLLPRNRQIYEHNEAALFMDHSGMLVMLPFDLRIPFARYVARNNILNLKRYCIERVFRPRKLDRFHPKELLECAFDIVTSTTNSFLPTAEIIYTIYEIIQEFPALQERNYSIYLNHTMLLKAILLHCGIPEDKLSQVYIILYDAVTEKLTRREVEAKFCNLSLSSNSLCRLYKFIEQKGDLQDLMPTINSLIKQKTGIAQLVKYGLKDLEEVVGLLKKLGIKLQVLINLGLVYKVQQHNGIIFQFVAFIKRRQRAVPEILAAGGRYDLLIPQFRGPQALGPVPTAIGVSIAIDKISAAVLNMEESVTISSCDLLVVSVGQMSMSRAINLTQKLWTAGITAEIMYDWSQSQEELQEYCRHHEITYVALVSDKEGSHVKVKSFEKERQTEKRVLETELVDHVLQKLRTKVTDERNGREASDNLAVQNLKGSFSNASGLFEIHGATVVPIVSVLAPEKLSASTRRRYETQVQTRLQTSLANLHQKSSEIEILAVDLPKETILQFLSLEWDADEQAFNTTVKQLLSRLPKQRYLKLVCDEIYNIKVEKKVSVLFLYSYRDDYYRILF
T7 sequence (Q8IZX4 whole entry): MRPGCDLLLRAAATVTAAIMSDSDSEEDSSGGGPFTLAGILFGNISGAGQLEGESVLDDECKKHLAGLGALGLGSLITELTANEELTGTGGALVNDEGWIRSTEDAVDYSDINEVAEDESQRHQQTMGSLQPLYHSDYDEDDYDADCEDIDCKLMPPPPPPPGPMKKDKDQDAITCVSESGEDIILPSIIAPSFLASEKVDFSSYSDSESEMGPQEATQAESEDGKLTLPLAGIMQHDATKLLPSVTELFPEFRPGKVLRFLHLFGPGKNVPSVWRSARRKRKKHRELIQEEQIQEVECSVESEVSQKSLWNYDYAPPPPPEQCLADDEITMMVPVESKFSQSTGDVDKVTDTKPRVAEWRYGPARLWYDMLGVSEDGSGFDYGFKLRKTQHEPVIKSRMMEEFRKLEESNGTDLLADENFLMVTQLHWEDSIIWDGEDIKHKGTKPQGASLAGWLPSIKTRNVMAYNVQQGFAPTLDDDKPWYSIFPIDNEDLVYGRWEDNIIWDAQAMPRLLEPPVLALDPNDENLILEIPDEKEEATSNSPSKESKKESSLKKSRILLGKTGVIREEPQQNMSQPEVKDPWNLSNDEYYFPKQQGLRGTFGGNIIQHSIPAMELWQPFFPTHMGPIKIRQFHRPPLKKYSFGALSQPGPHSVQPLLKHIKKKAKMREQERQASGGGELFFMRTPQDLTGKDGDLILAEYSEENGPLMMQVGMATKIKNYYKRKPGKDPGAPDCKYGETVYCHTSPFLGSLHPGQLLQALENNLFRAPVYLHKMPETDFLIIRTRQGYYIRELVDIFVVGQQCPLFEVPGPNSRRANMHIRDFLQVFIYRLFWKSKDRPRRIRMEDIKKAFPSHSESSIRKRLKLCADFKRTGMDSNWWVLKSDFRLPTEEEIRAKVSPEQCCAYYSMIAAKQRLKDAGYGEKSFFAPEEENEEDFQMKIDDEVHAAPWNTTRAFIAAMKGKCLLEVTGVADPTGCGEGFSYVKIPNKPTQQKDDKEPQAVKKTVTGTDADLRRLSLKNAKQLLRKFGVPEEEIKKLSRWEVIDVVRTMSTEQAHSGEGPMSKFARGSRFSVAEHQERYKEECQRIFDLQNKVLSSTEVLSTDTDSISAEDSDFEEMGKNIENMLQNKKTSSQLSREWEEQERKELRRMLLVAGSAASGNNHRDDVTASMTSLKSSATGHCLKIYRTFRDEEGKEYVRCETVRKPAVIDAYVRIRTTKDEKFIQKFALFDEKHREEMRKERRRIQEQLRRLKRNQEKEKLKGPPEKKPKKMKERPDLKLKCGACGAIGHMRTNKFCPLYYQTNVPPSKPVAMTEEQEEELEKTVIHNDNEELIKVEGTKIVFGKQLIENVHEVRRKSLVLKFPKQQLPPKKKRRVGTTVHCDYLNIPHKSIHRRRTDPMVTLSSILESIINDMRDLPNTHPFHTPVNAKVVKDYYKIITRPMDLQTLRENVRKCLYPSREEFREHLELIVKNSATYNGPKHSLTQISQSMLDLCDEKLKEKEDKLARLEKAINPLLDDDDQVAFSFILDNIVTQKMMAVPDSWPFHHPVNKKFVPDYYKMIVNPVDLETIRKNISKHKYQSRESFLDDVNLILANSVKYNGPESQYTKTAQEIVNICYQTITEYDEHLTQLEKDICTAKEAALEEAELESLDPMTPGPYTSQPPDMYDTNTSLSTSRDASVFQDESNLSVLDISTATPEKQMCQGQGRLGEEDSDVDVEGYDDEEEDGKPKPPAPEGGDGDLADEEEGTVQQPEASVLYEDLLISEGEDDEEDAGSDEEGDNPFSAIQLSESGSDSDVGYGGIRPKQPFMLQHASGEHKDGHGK
T1 sequence (P19525 whole entry): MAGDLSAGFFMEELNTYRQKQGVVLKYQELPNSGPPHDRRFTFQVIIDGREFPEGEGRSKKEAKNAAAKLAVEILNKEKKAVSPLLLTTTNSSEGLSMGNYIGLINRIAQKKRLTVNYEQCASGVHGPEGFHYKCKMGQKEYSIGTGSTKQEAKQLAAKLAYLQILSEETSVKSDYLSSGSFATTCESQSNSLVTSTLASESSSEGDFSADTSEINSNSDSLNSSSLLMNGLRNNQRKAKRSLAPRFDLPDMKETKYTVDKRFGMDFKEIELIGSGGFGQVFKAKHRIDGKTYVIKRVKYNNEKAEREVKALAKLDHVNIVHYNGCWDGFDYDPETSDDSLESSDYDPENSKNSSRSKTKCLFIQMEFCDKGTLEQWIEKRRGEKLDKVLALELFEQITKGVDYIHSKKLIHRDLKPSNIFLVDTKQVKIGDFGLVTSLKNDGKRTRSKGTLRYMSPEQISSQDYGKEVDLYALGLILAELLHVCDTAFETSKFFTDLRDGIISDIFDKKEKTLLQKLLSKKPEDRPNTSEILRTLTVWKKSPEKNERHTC
T6 sequence (Q9BQI3 whole entry): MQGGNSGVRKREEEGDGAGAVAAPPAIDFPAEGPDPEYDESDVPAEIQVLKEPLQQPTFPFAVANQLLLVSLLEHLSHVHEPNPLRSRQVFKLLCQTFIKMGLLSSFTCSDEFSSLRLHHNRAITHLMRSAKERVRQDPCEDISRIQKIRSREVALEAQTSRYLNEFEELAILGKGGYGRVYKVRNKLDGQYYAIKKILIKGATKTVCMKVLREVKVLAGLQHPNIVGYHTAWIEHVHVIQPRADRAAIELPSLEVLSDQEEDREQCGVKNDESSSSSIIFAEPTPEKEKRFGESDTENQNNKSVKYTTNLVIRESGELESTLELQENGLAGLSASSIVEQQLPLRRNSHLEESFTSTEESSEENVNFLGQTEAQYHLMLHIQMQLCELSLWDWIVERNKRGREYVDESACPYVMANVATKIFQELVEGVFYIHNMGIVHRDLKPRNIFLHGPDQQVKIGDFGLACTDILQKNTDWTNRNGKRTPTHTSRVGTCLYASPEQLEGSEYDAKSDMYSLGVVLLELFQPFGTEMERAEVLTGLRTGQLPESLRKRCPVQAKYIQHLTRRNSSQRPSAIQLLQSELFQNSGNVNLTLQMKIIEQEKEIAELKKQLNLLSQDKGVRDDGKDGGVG
T2 sequence (P53779 whole entry): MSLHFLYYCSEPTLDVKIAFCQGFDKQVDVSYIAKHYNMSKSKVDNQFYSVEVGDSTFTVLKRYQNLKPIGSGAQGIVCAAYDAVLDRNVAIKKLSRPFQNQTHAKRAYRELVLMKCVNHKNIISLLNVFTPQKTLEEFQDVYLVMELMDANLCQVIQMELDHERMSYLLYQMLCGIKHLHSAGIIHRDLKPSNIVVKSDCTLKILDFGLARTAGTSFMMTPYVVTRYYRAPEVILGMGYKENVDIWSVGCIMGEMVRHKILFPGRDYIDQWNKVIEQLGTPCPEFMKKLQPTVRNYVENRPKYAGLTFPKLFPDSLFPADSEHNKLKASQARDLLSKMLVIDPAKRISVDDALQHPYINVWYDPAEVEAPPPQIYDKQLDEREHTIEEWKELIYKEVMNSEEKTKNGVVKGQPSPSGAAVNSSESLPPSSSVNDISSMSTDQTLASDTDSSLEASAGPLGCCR

CNC(=O)[C@]1(C)CC[C@@H](Nc2ncc3c(Br)nn(-c4ccc(-c5nnc(C)s5)cc4)c3n2)C1
fold change (FC) [1]: > 10000
Activity (Panc02): Active
IC50 [2]: 101 nM
fold change (FC) [3]: > 10000
half-life [4]: 52 min
inhibition in vivo at 15 mg/kg (Spleen): 80%
fold change (FC) [5]: 20
IC50 [6]: > 50000 nM
bioavailability [7]: 50%
IC50 (eIF-2-alpha kinase GCN2 [8]): 5 nM
Vd [9]: 0.8 L/kg
inhibition in vivo at 50 mg/kg [10]: 79%
half-life [11]: 72 min
IC50 (CDK6/cyclin D3): 191 nM
fold change (FC) [12]: > 200
fold change (FC) [13]: 25
IC50 [14]: > 1000 nM
fold change (FC) [15]: 23
AUC(0-inf) [16]: 4600 ng·h/mL
Fu [17]: 1%
inhibition in vivo at 15 mg/kg (Mus musculus [18]): 84%
IC50 [19]: > 50000 nM
fold change (FC) [20]: 28
IC50 (eIF-2-alpha kinase GCN2 [21]): 1310 nM
IC50 [22]: 118 nM
clearance [23]: 10 mL/min/kg
fold change (FC) [24]: 38
bioavailability [25]: 80%
fold change (FC) [26]: 33
inhibition in vivo at 50 mg/kg [27]: 56%
IC50 [28]: 143 nM
IC50 [29]: 165 nM
IC50 [30]: 124 nM
inhibition in vivo at 15 mg/kg (Mus musculus [31]): 65%
AUC(0-inf) [32]: 1680 ng·h/mL
IC50 (eIF-2-alpha kinase GCN2 [33]): 16 nM

COCCNC(=O)[C@H]1CC[C@@H](Nc2ncc3c(Br)nn(-c4ccc5ncccc5c4)c3n2)C1
IC50 (eIF-2-alpha kinase GCN2 [8]): 61 nM
IC50 (eIF-2-alpha kinase GCN2 [33]): 156 nM

COCCNC(=O)[C@H]1CC[C@@H](Nc2ncc3c(Br)nn(-c4ccc5ncccc5c4)c3n2)CC1
IC50 (eIF-2-alpha kinase GCN2 [8]): 211 nM
IC50 (eIF-2-alpha kinase GCN2 [33]): 763 nM

Brc1nn(-c2ccc3ncccc3c2)c2nc(N[C@@H]3CC[C@@H](c4ncc[nH]4)C3)ncc12 (relative stereo)
IC50 (eIF-2-alpha kinase GCN2 [8]): 21 nM
IC50 (eIF-2-alpha kinase GCN2 [33]): 545 nM

CNC(=O)[C@@H]1CC[C@@H](Nc2ncc3c(Br)nn(-c4ccc5ncccc5c4)c3n2)C1
IC50 (eIF-2-alpha kinase GCN2 [8]): 21 nM
IC50 (eIF-2-alpha kinase GCN2 [33]): 25 nM

CNC(=O)[C@]1(C)CC[C@@H](Nc2ncc3c(Br)nn(-c4ccc(-c5nnc(C)s5)c(CCC#N)c4)c3n2)C1
half-life [4]: 13 min
IC50 (eIF-2-alpha kinase GCN2 [8]): 10 nM
AUC(0-inf) [16]: 1900 ng·h/mL
bioavailability [25]: 42%
IC50 (eIF-2-alpha kinase GCN2 [33]): 29 nM

Brc1nn(-c2ccc3ncccc3c2)c2nc(Nc3cnn(C4CCNCC4)c3)ncc12
IC50 (eIF-2-alpha kinase GCN2 [8]): 3 nM
IC50 (eIF-2-alpha kinase GCN2 [33]): 610 nM
